Patent publication US20250282715A1, “SOLID STATE FORMS OF MIRDAMETINIB AND PROCESS FOR PREPARATION THEREOF” (Assia Chemical Industries Ltd., priority 2022, published 2025)

Legend:
Type in all cases: physicochemical
[1] = Thermal stability (oven heating, XRPD analysis); conditions: heated in an oven at 100° C. for 30 minutes
Experimental: (§1) A sample, after being powdered in a mortar and pestle, is applied directly on a silicon plate holder. The X-ray powder diffraction pattern was measured with Philips X'Pert PRO X-ray powder diffractometer, equipped with Cu irradiation source=1.54184 Å (Ångström), X'Celerator (2.022° 20) detector. Scanning parameters: angle range: 3-40 deg., step size 0.0167, time per step 37 s, continuous scan.
Samples of Mirdametinib oxalic acid co-crystal Form A (100 mg) and Form IV were heated in an oven at 100° C. for 30 minutes.

[2] = Hygroscopicity (water absorption at up to 90% RH); conditions: about 25° C.
[3] = Stability to compression (2 tons, XRPD analysis); conditions: pressure of 2 tons for 2 minutes, hydraulic press
Experimental: as §1
A sample of Mirdametinib oxalic acid co-crystal Form A was subjected to a pressure of 2 tons for 2 minutes (Atlas® Autopress hydraulic press, set to 2 tons).

O=C(NOC[C@H](O)CO)c1ccc(F)c(F)c1Nc1ccc(I)cc1F [Mirdametinib form IV, N-[(2R)-2,3-dihydroxypropoxyl]-3,4-difluoro-2-[(2-fluoro-4-iodophenyl)amino]benzamide, reference compound]
XRPD after heating [1]: form IV + form I

O=C(NOC[C@H](O)CO)c1ccc(F)c(F)c1Nc1ccc(I)cc1F.O=C(O)C(=O)O
XRPD after heating [1]: Form A | XRPD after heating ([1]; listed as Mirdametinib oxalic acid co-crystal Form A): no conversion to other polymorph forms | Hygroscopicity / water absorption [2]: little or no water absorption | Stability to compression: XRPD analysis after mechanical stress [3]: resistant to amorphization
